# From ChEMBL document CHEMBL4024727, “Synthesis and antimycobacterial screening of new thiazolyl-oxazole derivatives” (Eur J Med Chem, 2017)
# Experiments:
# Pseudomonas fluorescens [1] = test: Antibacterial activity against Pseudomonas fluorescens NCIM 2059 measured after 8 hrs; format: functional; settings: NCIM 2059, 8 h
# Pseudomonas fluorescens [2] = test: Growth inhibition of Pseudomonas fluorescens NCIM 2059 at 30 ug/ml measured after 8 hrs relative to control; format: functional; settings: NCIM 2059, 8 h, read-out: GI
# Bacillus subtilis [3] = test: Growth inhibition of Bacillus subtilis NCIM 2162 at 30 ug/ml measured after 12 hrs relative to control; format: functional; settings: NCIM 2162, 12 h, read-out: GI
# [4] = system: Mycobacterium tuberculosis; test: Antitubercular activity against Mycobacterium tuberculosis H37Ra ATCC 25177 dormant stage by XTT dye based two-fold dilution method; format: functional
# [5] = system: Mycobacterium tuberculosis; test: Growth inhibition of Mycobacterium tuberculosis H37Ra ATCC 25177 at 30 ug/ml by XTT dye based two-fold dilution method relative to control; format: functional; settings: read-out: GI
# HeLa = test: (§1) Growth inhibition of human HeLa cells by MTT assay; format: cell-based; settings: hela
# [6] = as §1; format: cell-based; settings: HeLa cells
# [7] = Selectivity index, ratio of GI50 for human A549 cells to MIC for Mycobacterium bovis BCG ATCC 35743 dormant stage; format: toxicity; settings: read-out: Selectivity Index
# [8] = system: Mycobacterium tuberculosis; test: Growth inhibition of Mycobacterium bovis BCG ATCC 35743 at 1 ug/ml by nitrate reductase based two-fold dilution assay relative to control; format: functional; settings: BCG str. ATCC 35743, read-out: GI
# Escherichia coli [9] = test: Growth inhibition of Escherichia coli NCIM 2576 at 1 ug/ml measured after 8 hrs relative to control; format: functional; settings: NCIM 2576, 8 h, read-out: GI
# [10] = system: Mycobacterium tuberculosis; test: Growth inhibition of Mycobacterium tuberculosis H37Ra ATCC 25177 at 3 ug/ml by XTT dye based two-fold dilution method relative to control; format: functional; settings: read-out: GI
# Bacillus subtilis [11] = test: Antibacterial activity against Bacillus subtilis NCIM 2162 measured after 12 hrs; format: functional; settings: NCIM 2162, 12 h
# PANC-1 = test: (§2) Growth inhibition of human PANC1 cells by MTT assay; format: cell-based; settings: panc-1
# [12] = as §2; format: cell-based, PANC-1; settings: PANC-1 cells
# A549 = test: (§3) Growth inhibition of human A549 cells by MTT assay; format: cell-based; settings: a549
# [13] = as §3; format: cell-based; settings: A549 cells
# Pseudomonas fluorescens [14] = test: Growth inhibition of Pseudomonas fluorescens NCIM 2059 at 10 ug/ml measured after 8 hrs relative to control; format: functional; settings: NCIM 2059, 8 h, read-out: GI
# Staphylococcus aureus [15] = test: Growth inhibition of Staphylococcus aureus NCIM 2602 at 1 ug/ml measured after 12 hrs relative to control; format: functional; settings: NCIM 2602, 12 h, read-out: GI
# [16] = system: Mycobacterium tuberculosis; test: Antitubercular activity against Mycobacterium bovis BCG ATCC 35743 dormant stage by nitrate reductase based two-fold dilution assay; format: functional; settings: BCG str. ATCC 35743
# [17] = system: Mycobacterium tuberculosis; test: Growth inhibition of Mycobacterium bovis BCG ATCC 35743 at 10 ug/ml by nitrate reductase based two-fold dilution assay relative to control; format: functional; settings: BCG str. ATCC 35743, read-out: GI
# [18] = Selectivity index, ratio of GI50 for human PANC1 cells to MIC for Mycobacterium tuberculosis H37Ra ATCC 25177 dormant stage; format: toxicity; settings: PANC-1 cells, read-out: Selectivity Index
# Bacillus subtilis [19] = test: Growth inhibition of Bacillus subtilis NCIM 2162 at 10 ug/ml measured after 12 hrs relative to control; format: functional; settings: NCIM 2162, 12 h, read-out: GI
# Pseudomonas fluorescens [20] = test: Growth inhibition of Pseudomonas fluorescens NCIM 2059 at 1 ug/ml measured after 8 hrs relative to control; format: functional; settings: NCIM 2059, 8 h, read-out: GI
# Bacillus subtilis [21] = test: Growth inhibition of Bacillus subtilis NCIM 2162 at 1 ug/ml measured after 12 hrs relative to control; format: functional; settings: NCIM 2162, 12 h, read-out: GI
# Escherichia coli [22] = test: Antibacterial activity against Escherichia coli NCIM 2576 measured after 8 hrs; format: functional; settings: NCIM 2576, 8 h
# [23] = Selectivity index, ratio of GI50 for human A549 cells to MIC for Mycobacterium tuberculosis H37Ra ATCC 25177 dormant stage; format: toxicity; settings: read-out: Selectivity Index
# [24] = Selectivity index, ratio of GI50 for human HeLa cells to MIC for Mycobacterium bovis BCG ATCC 35743 dormant stage; format: toxicity, cell-based; settings: read-out: Selectivity Index
# Escherichia coli [25] = test: Growth inhibition of Escherichia coli NCIM 2576 at 30 ug/ml measured after 8 hrs relative to control; format: functional; settings: NCIM 2576, 8 h, read-out: GI
# Staphylococcus aureus [26] = test: Growth inhibition of Staphylococcus aureus NCIM 2602 at 30 ug/ml measured after 12 hrs relative to control; format: functional; settings: NCIM 2602, 12 h, read-out: GI
# Staphylococcus aureus [27] = test: Growth inhibition of Staphylococcus aureus NCIM 2602 at 10 ug/ml measured after 12 hrs relative to control; format: functional; settings: NCIM 2602, 12 h, read-out: GI
# Escherichia coli [28] = test: Growth inhibition of Escherichia coli NCIM 2576 at 10 ug/ml measured after 8 hrs relative to control; format: functional; settings: NCIM 2576, 8 h, read-out: GI
# [29] = system: Mycobacterium tuberculosis; test: Growth inhibition of Mycobacterium bovis BCG ATCC 35743 at 30 ug/ml by nitrate reductase based two-fold dilution assay relative to control; format: functional; settings: BCG str. ATCC 35743, read-out: GI
# [30] = system: Mycobacterium tuberculosis; test: Growth inhibition of Mycobacterium tuberculosis H37Ra ATCC 25177 at 10 ug/ml by XTT dye based two-fold dilution method relative to control; format: functional; settings: read-out: GI
# Staphylococcus aureus [31] = test: Antibacterial activity against Staphylococcus aureus NCIM 2602 measured after 12 hrs; format: functional; settings: NCIM 2602, 12 h
# [32] = Selectivity index, ratio of GI50 for human PANC1 cells to MIC for Mycobacterium bovis BCG ATCC 35743 dormant stage; format: toxicity; settings: PANC-1 cells, read-out: Selectivity Index
# [33] = Selectivity index, ratio of GI50 for human HeLa cells to MIC for Mycobacterium tuberculosis H37Ra ATCC 25177 dormant stage; format: toxicity, cell-based; settings: read-out: Selectivity Index
smiles,measurement,setting,value
Cc1nc(-c2ccc(F)cc2)oc1-c1csc(Cc2ccc(F)cc2)n1,MIC,Pseudomonas fluorescens [1],54.8 µM
same,inhibition of growth at 30 µg/mL,Pseudomonas fluorescens [2],95.9%
same,inhibition of growth at 30 µg/mL,Bacillus subtilis [3],96.7%
same,IC50,[4],180 nM
same,MIC90,[4],1.74 µM
same,inhibition of growth at 30 µg/mL,[5],93%
same,GI90,HeLa,> 250 µg/mL
same,GI50,[6],94.9 µg/mL
same,selectivity ratio,[7],385
same,inhibition of growth at 1 µg/mL,[8],93%
same,inhibition of growth at 1 µg/mL,Escherichia coli [9],72.2%
same,inhibition of growth at 3 µg/mL,[10],91%
same,MIC,Bacillus subtilis [11],39.1 µM
same,GI90,PANC-1,> 250 µg/mL
same,GI50,[12],> 250 µg/mL
same,GI90,A549,> 250 µg/mL
same,GI50,[13],> 250 µg/mL
same,inhibition of growth at 10 µg/mL,Pseudomonas fluorescens [14],83.2%
same,inhibition of growth at 1 µg/mL,Staphylococcus aureus [15],80%
same,IC50,[16],190 nM
same,MIC90,[16],1.76 µM
same,inhibition of growth at 10 µg/mL,[17],95%
same,selectivity ratio,[18],391
same,inhibition of growth at 10 µg/mL,Bacillus subtilis [19],88.2%
same,inhibition of growth at 1 µg/mL,Pseudomonas fluorescens [20],78.6%
same,inhibition of growth at 1 µg/mL,Bacillus subtilis [21],83.5%
same,MIC,Escherichia coli [22],60.3 µM
same,selectivity ratio,[23],391
same,selectivity ratio,[24],146
same,inhibition of growth at 30 µg/mL,Escherichia coli [25],94.8%
same,inhibition of growth at 30 µg/mL,Staphylococcus aureus [26],94.1%
same,inhibition of growth at 10 µg/mL,Staphylococcus aureus [27],82.1%
same,inhibition of growth at 10 µg/mL,Escherichia coli [28],85.2%
same,inhibition of growth at 30 µg/mL,[29],96%
same,inhibition of growth at 10 µg/mL,[30],93%
same,MIC,Staphylococcus aureus [31],62.7 µM
same,selectivity ratio,[32],385
same,selectivity ratio,[33],148
